Like-named read-outs stand apart in the source and are kept apart here.
Key:
Format in all cases: cell-based
[1] = tested on: A. baumannii; experiment: MIC broth microdilution (CLSI); settings: Acinetobacter baumannii
Summary of the method: (§1)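 CLSI broth microdilution; cation-adjusted MHB; inoculum 5×10^5 CFU/mL final; 2-fold compound series; 35° C., ambient air, 18-24 h. MIC = lowest conc. with no visible growth (OD 600 nm<0.05). QC strains and neomycin run per CLSI.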

[2] = tested on: C. freundii; experiment: MIC broth microdilution (CLSI); settings: Citrobacter freundii, read-out: Activity (MIC)
Summary of the method: as §1

[3] = tested on: E. cloacae; experiment: MIC broth microdilution (CLSI); settings: Enterobacter cloacae; strain AECL1089, MDR Clinical isolate (CDC CRE panel), CDC AR Bank 0154
Summary of the method: as §1

[4] = tested on: E. coli; experiment: MIC broth microdilution (CLSI); settings: Escherichia coli
Summary of the method: as §1

[5] = tested on: K. aerogenes; experiment: MIC broth microdilution (CLSI); settings: Klebsiella aerogenes; strain AEAE1042, MDR Clinical isolate (CDC CRE panel), CDC AR Bank 0161
Summary of the method: as §1

[6] = tested on: K. pneumoniae; experiment: MIC broth microdilution (CLSI)
Summary of the method: as §1

[7] = tested on: P. aeruginosa; experiment: MIC broth microdilution (CLSI); settings: Pseudomonas aeruginosa
Summary of the method: as §1

[8] = tested on: P. mirabilis; experiment: MIC broth microdilution (CLSI); settings: Proteus mirabilis; strain APMI1048, MDR Clinical isolate (CDC CRE panel), CDC AR Bank 0159
Summary of the method: as §1

[9] = tested on: S. aureus; experiment: MIC broth microdilution (CLSI); settings: for MIC: Staphylococcus aureus
Summary of the method: as §1

[10] = tested on: S. enterica; experiment: MIC broth microdilution (CLSI); settings: Salmonella enterica, read-out: Activity (MIC)
Summary of the method: as §1

[11] = tested on: A. baumannii-calcoaceticus; experiment: Antibacterial surveillance of clinical isolates (MIC50/90); settings: 100 isolates
Experimental: (§2) Minimum inhibitory concentrations for representative example compounds herein were determined by a broth microdilution method in accordance with the Clinical and Laboratory Standards Institute (CLSI) guidelines. In brief, organism suspensions were adjusted to a 0.5 McFarland standard to yield a final inoculum between 3×10^5 and 7×10^5 colony-forming units (CFU)/mL. The inoculum was prepared by suspension of a colony from an agar plate that was prepared the previous day. Compound dilutions and inoculum were prepared in sterile, cation adjusted Mueller-Hinton Broth (Beckton Dickinson).
(§3) Bacteria were suspended in sterile saline and added to each assay plate to obtain a final concentration of 5×10^5 CFU/mL. An inoculum volume of 100 μL was added to wells containing 100 μL of broth with 2-fold serial dilutions of the test compound. All inoculated microdilution trays were incubated in ambient air at 35° C. for 18-24 hours. Following incubation, the lowest concentration of the compound that prevented visible growth (OD 600 nm<0.05) is recorded was the MIC. […] Performance of the assay was monitored by the use of laboratory quality-control strains and a standard compound with a defined MIC spectrum (neomycin), in accordance with CLSI guidelines.
(§4) Several compounds of the disclosure (Compound 1, 2, and 3) were further evaluated against several hundred bacterial isolates (isolated in the United States and Europe, 1:1) selected from the SENTRY Antimicrobial Surveillance Program (JMI Laboratories, North Liberty, Iowa). The set of clinical isolates included 300 randomly selected Enterobacterales, 103 randomly selected P. aeruginosa, 100 randomly selected A. baumannii-calcoaceticus, 20 randomly selected Methicillin-sensitive S. aureus (MSSA), and 30 randomly selected Methicillin-resistant S. aureus (MRSA). In addition, 101 Enterobacterales and 50 P. aeruginosa isolates with genetically defined mechanisms of aminoglycoside resistance were included. The MIC values at which ≥50% (MIC50) and ≥90% (MIC90) of isolates within a given set are inhibited were determined for each compound against each set of organisms.

[12] = tested on: AG-resistant Enterobacterales; experiment: as above
Experimental: as §2, §3, §4

[13] = tested on: Enterobacterales; experiment: as above
Experimental: as §2, §3, §4

[14] = tested on: Methicillin-resistant S. aureus (MRSA); experiment: as above; settings: Staphylococcus aureus, MRSA, 30 isolates
Experimental: as §2, §3, §4

[15] = tested on: Methicillin-sensitive S. aureus (MSSA); experiment: as above; settings: Staphylococcus aureus, MSSA, 20 isolates
Experimental: as §2, §3, §4

[16] = tested on: P. aeruginosa; experiment: as above; settings: Pseudomonas aeruginosa, 103 isolates
Experimental: as §2, §3, §4

`NCC[C@H](O)C(=O)N[C@@H]1[C@@H](O)[C@H](N)[C@@H](O[C@H]2O[C@H](CN)CC[C@H]2N)[C@H](O[C@@H]2O[C@H](CO)[C@@H](O[C@H]3O[C@@H](CN)[C@@H](O)[C@H](O)[C@H]3N)[C@H]2O)[C@H]1O` [Compound 2, (S)-4-amino-N-((1R,2S,3S,4R,5R,6S)-3-amino-5-(((2S,3R,4S,5R)-4-(((2R,3R,4R,5S,6S)-3-amino-6-(aminomethyl)-4,5-dihydroxytetrahydro-2H-pyran-2-yl)oxy)-3-hydroxy-5-(hydroxymethyl)tetrahydrofuran-2-yl)oxy)-4-(((2R,3R,6S)-3-amino-6-(aminomethyl)tetrahydro-2H-pyran-2-yl)oxy)-2,6-dihydroxycyclohexyl)-2-hydroxybutanamide] showed an MIC ([1]; read-out: Activity (MIC), strain NABA0007, ΔadeJK efflux) of less than 16 µg/mL, an MIC ([1]; read-out: Activity (MIC), strain NABA1427, MDR Clinical isolate) of less than 16 µg/mL and an MIC ([1]; read-out: Activity (MIC), strain NABA1433, MDR Clinical isolate) of less than 16 µg/mL. The MIC ([1]; read-out: Activity (MIC), strain NABA1434, MDR Clinical isolate) was less than 16 µg/mL, the MIC ([1]; read-out: Activity (MIC), strain NABA1436, MDR Clinical isolate) was less than 16 µg/mL and the MIC ([1]; read-out: Activity (MIC), strain NABA1437, MDR Clinical isolate) was less than 16 µg/mL. The MIC ([1]; read-out: Activity (MIC), strain NABA1438, MDR Clinical isolate) was less than 16 µg/mL, the MIC ([1]; read-out: Activity (MIC), strain NABA1439, MDR Clinical isolate) was less than 16 µg/mL and the MIC ([1]; read-out: Activity (MIC), strain NABA1448, MDR Clinical isolate) was less than 16 µg/mL. The MIC ([1]; read-out: Activity (MIC), strain NABA1449, MDR Clinical isolate) was less than 16 µg/mL, the MIC ([1]; read-out: Activity (MIC), strain NABA1450, MDR Clinical isolate) was less than 16 µg/mL and the MIC ([1]; strain NABA0006, WT parent, read-out: Activity (MIC)) was less than 16 µg/mL. For the same compound, the MIC ([1]; strain NABA0020, AME negative strain, read-out: Activity (MIC)) was less than 16 µg/mL, the MIC [2] was less than 16 µg/mL and the MIC [3] was less than 16 µg/mL. It also gave an MIC ([4]; read-out: Activity (MIC), strain AECO1225, MDR Clinical isolate (CDC CRE panel), CDC AR Bank 0118) of less than 16 µg/mL, an MIC ([4]; read-out: Activity (MIC), strain AECO1226, MDR Clinical isolate (CDC CRE panel), CDC AR Bank 0119) of less than 16 µg/mL and an MIC ([4]; read-out: Activity (MIC), strain AECO1227, MDR Clinical isolate (CDC CRE panel), CDC AR Bank 0128) of less than 16 µg/mL. It also gave an MIC ([4]; read-out: Activity (MIC), strain NECO0003, ΔtolC) of less than 16 µg/mL, an MIC ([4]; read-out: Activity (MIC), strain NECO0245, ArmA) of less than 16 µg/mL and an MIC ([4]; strain NECO0001, WT QC, read-out: Activity (MIC)) of less than 16 µg/mL. The MIC ([4]; strain NECO0002, WT, read-out: Activity (MIC)) was less than 16 µg/mL, the MIC ([4]; strain NECO0243, empty vector, read-out: Activity (MIC)) was less than 16 µg/mL and the MIC ([4]; strain NECO0244, AAC(6')-Ib, read-out: Activity (MIC)) was less than 16 µg/mL. For the same compound, the MIC ([4]; strain NECO0289, APH(3')-Ia, read-out: Activity (MIC)) was less than 16 µg/mL, the MIC ([4]; strain NECO0302, AAC(3)-IIa, read-out: Activity (MIC)) was less than 16 µg/mL and the MIC ([4]; strain NECO0350, AAC(2')-I, read-out: Activity (MIC)) was less than 16 µg/mL. For the same compound, the MIC ([4]; strain NECO0359, ANT(4')-Ia, read-out: Activity (MIC)) was less than 16 µg/mL, the MIC [5] was less than 16 µg/mL and the MIC ([6]; Klebsiella pneumoniae, strain AKPN1246, MDR Clinical isolate (CDC CRE panel), CDC AR Bank 0139) was less than 16 µg/mL. The “Activity (MIC)” value ([6]; strain AKPN1250, MDR Clinical isolate (CDC CRE panel), CDC AR Bank 0143) was “+ (MIC threshold for positive activity (+) is ≤16 μg/mL)”, the “Activity (MIC)” value ([6]; strain AKPN1253, MDR Clinical isolate (CDC CRE panel), CDC AR Bank 0148) was “+ (MIC threshold for positive activity (+) is ≤16 μg/mL)” and the “Activity (MIC)” value ([6]; strain AKPN1255, MDR Clinical isolate (CDC CRE panel), CDC AR Bank 0153) was “+ (MIC threshold for positive activity (+) is ≤16 μg/mL)”. The MIC ([7]; read-out: Activity (MIC), strain NPAE0006, Efflux KO, Aph(3')-IIb) was less than 16 µg/mL, the MIC ([7]; read-out: Activity (MIC), strain NPAE0010, MexXY over-expressed, Aph(3')-IIb) was less than 16 µg/mL and the MIC ([7]; read-out: Activity (MIC), strain NPAE1288, MDR Clinical isolate) was less than 16 µg/mL. The MIC ([7]; read-out: Activity (MIC), strain NPAE1293, MDR Clinical isolate) was less than 16 µg/mL, the MIC ([7]; read-out: Activity (MIC), strain NPAE1299, MDR Clinical isolate) was less than 16 µg/mL and the MIC ([7]; read-out: Activity (MIC), strain NPAE1302, MDR Clinical isolate) was less than 16 µg/mL. It also gave an MIC ([7]; read-out: Activity (MIC), strain NPAE1303, MDR Clinical isolate) of less than 16 µg/mL, an MIC ([7]; read-out: Activity (MIC), strain NPAE1308, MDR Clinical isolate) of less than 16 µg/mL and an MIC ([7]; read-out: Activity (MIC), strain NPAE1310, MDR Clinical isolate) of less than 16 µg/mL. It also gave an MIC ([7]; read-out: Activity (MIC), strain NPAE1313, MDR Clinical isolate) of less than 16 µg/mL, an MIC ([7]; read-out: Activity (MIC), strain NPAE1316, MDR Clinical isolate) of less than 16 µg/mL and an MIC ([7]; read-out: Activity (MIC), strain NPAE1323, MDR Clinical isolate) of less than 16 µg/mL. The MIC ([7]; strain NPAE0001, WT Aph(3')-IIb, QC, read-out: Activity (MIC)) was less than 16 µg/mL, the MIC ([7]; strain NPAE0002, WT Aph(3')-IIb, read-out: Activity (MIC)) was less than 16 µg/mL and the MIC ([7]; strain NPAE0359, aph(3')-IIb KO (tetR), read-out: Activity (MIC)) was less than 16 µg/mL. It also gave an MIC [8] of less than 16 µg/mL, an MIC ([9]; ATCC29213, strain NSAU001, wild-type, QC, ATCC 29213) of less than 16 µg/mL and an MIC ([9]; strain NSAU1004, MDR Clinical isolate) of less than 16 µg/mL. For the same compound, the “Activity (MIC)” value ([9]; strain NSAU1015, MDR Clinical isolate) was “+ (MIC threshold for positive activity (+) is ≤16 μg/mL)”, the “Activity (MIC)” value ([9]; strain NSAU1023, MDR Clinical isolate) was “+ (MIC threshold for positive activity (+) is ≤16 μg/mL)” and the “Activity (MIC)” value ([9]; strain NSAU1063, MDR Clinical isolate) was “+ (MIC threshold for positive activity (+) is ≤16 μg/mL)”. It also gave an MIC [10] of less than 16 µg/mL, an MIC50 ([11]; read-out: MIC50) of less than 16 µg/mL and an MIC90 ([11]; read-out: MIC90) of less than 16 µg/mL. It also gave an MIC50 [12] of less than 16 µg/mL, an MIC90 [12] of less than 16 µg/mL and an MIC50 [13] of less than 16 µg/mL. The MIC90 [13] was less than 16 µg/mL, the MIC50 ([14]; read-out: MIC50) was less than 16 µg/mL and the MIC90 ([14]; read-out: MIC90) was less than 16 µg/mL. For the same compound, the MIC50 ([15]; read-out: MIC50) was less than 16 µg/mL, the MIC90 ([15]; read-out: MIC90) was less than 16 µg/mL and the MIC50 ([16]; read-out: MIC50) was less than 16 µg/mL. For the same compound, the MIC90 ([16]; read-out: MIC90) was less than 16 µg/mL.
